US6143790A, “L-N^6 -(1-iminoethyl)lysine derivatives useful as nitric oxide synthase inhibitors” (G.D. Searle & Co., priority 1996, dated 2000)
Where a name gives a salt, the structure may show the parent alone. One block for each compound: values may come before it.

Experiments:
iNOS = assay: % inhibition of iNOS at 100 μM; type: biochemical
Protocol: (§1) Citrulline Assay for Nitric Oxide Synthase Nitric oxide synthase activity was measured by monitoring the conversion of L-[2,3-3H]-arginine to L-[2,3-3H]-citrulline (1,2). Human inducible NOS (hiNOS), human endothelial constitutive NOS (hecNOS) and human neuronal constitutive NOS (hncNOS) were each cloned from RNA extracted from human tissue. The recombinant enzymes were expressed in insect cells using a baculovirus vector. Enzyme activity was isolated from cell extracts and partially purified by DEAE-Sepharose chromatography (2). Mouse inducible NOS (miNOS) was prepared from an extract of LPS-treated mouse RAW 264.7 cells and rat brain constitutive NOS (rcNOS) was prepared from an extract of rat cerebellum. Both preparations were partially purified by DEAE-Sepharose chromatography (2). Enzyme and inhibitors were added to give a volume of 50 μL in 50 mM Tris (pH 7.6) and the reaction initiated by the addition of 50 μL of a solution containing 50 mM Tris (pH 7.6), 2.0 mg/mL bovine serum albumin, 2.0 mM DTT, 4.0 mM CaCl2, 20 μM FAD, 100 μM tetrahydrobiopterin, 0.4-2.0 mM NADPH and 60 μM L-arginine containing 0.9 μCi of L-[2,3-3H]-arginine. For constitutive NOS, calmodulin was included at a final concentration of 40-100 nM. Following incubation at 37° C. for 15 minutes, the reaction was terminated by addition of 300 μL cold buffer containing 10 mM EGTA, 100 mM HEPES (pH5.5) and 1.0 mM L-citrulline. The [3H]-citrulline was separated by chromatography on Dowex 50W X-8 cation exchange resin and radioactivity quantified with a liquid scintillation counter.

[1] = molecular target: T1, Human inducible NOS (hiNOS) (Homo sapiens, UniProt P35228); assay: Citrulline Assay for Nitric Oxide Synthase, hiNOS; type: biochemical
T1 construct: made in house; host or cells: insect cells, baculovirus vector
Protocol: (§2) Citrulline Assay for Nitric Oxide Synthase
as §1, with “Nitric” for “Citrulline Assay for Nitric Oxide Synthase Nitric”

[2] = molecular target: T2, human endothelial constitutive NOS (hecNOS) (Homo sapiens, UniProt P29474); assay: Citrulline Assay for Nitric Oxide Synthase, hecNOS; type: biochemical
T2 construct: made in house; host or cells: insect cells, baculovirus vector
Protocol: as §2
as §1, with “Nitric” for “Citrulline Assay for Nitric Oxide Synthase Nitric”

[3] = molecular target: T3, human neuronal constitutive NOS (hncNOS) (Homo sapiens, UniProt P29475); assay: Citrulline Assay for Nitric Oxide Synthase, hncNOS; type: biochemical
T3 construct: made in house; host or cells: insect cells, baculovirus vector
Protocol: as §2
as §1, with “Nitric” for “Citrulline Assay for Nitric Oxide Synthase Nitric”

RAW cell i-NOS = molecular target: T4, RAW cell i-NOS (Mus musculus, UniProt P29477); assay: Raw Cell Nitrite Assay; type: cell-based; conditions: RAW 264.7 cells, LPS induced, L-arginine 30 μM
T4 construct: grown overnight (17 h) in the presence of LPS to induce NOS; endogenous in cells; host or cells: RAW 264.7 cells, LPS-induced
Protocol: RAW 264.7 cells are plated to confluency on a 96-well tissue culture plate grown overnight (17 h) in the presence of LPS to induce NOS. A row of 3-6 wells are left untreated and served as controls for subtraction of nonspecific background. The media is removed from each well and the cells are washed twice with Krebs-Ringers-Hepes (25 mM, pH 7.4) with 2 mg/ml glucose. The cells are then placed on ice and incubated with 50 μL of buffer containing L-arginine (30 μM) +/-inhibitors for 1 h. The assay is initiated by warming the plate to 37° C. in a water bath for 1 h. Production of nitrite by intracellular iNOS is linear with time. To terminate the cellular assay, the plate of cells is placed on ice and the nitrite-containing buffer removed and analyzed for nitrite using a previously published fluorescent determination for nitrite. All values are the average of triplicate wells and are compared to a background-subtracted induced set of cells (100% value).

[4] = system: constitutive and the inducible NO synthase; conditions: constitutive vs inducible NO synthase; cited from earlier work

SMILES: COC(=O)CC(N)c1ccc(NC(C)=N)cc1 (stereo not drawn) [Example 10f]
% inhibiton iNOS at 100 μM (iNOS): 7.7%

SMILES: CC(=N)NCCCC[C@H](N)C(C)O (stereo partly drawn) [Example 40B, N-(5S-amino-6-hydroxyheptyl)ethanimidamide, dihydrochloride dihydrate]
% inhibiton iNOS at 100 μM (iNOS): 14.5%

SMILES: CC(=N)NCCCC[C@H](N)C(=O)NO [Example 50, 2S-amino-N-hydroxy-6-[(1-iminoethyl)amino]hexanamide, hydrochloride]
% inhibiton iNOS at 100 μM (iNOS): 40.6%

SMILES: CCC(N)CCCCNC(C)=N (stereo not drawn) [Example 5, N1-(1-iminoethyl) -1,5-heptanediamine]
% inhibiton iNOS at 100 μM (iNOS): 27%

IC50 [1]: 9.3 µM | IC50 [2]: 2350 µM | IC50 [3]: 99.6 µM | IC50 (RAW cell i-NOS): 57.3 µM
SMILES: CC(=N)NCCCC[C@H](N)C(C)(O)CO (single isomer, unassigned) [Example 15A, N-(5S-amino-6,7-dihydroxy-6-methylheptyl)ethanimidamide, hydrochloride dihydrate]

SMILES: CC(=N)NCCCC[C@H](N)CO [Example 48, N-(5S-amino-6-hydroxyhexyl)ethanimidamide]
% inhibiton iNOS at 100 μM (iNOS): 40.6%

SMILES: CCOC(=O)C[C@@H](N)CCCCNC(C)=N [Example 1d, Ethyl 3S-amino-7-[(1-iminoethyl)amino]heptanoate]
% inhibiton iNOS at 100 μM (iNOS): 35%

SMILES: CC(=N)NCCCC[C@H](N)c1ncc(C)o1 [Example 49, N-[5-amino-5-(5-methyloxazol-2-yl)pentyl]ethanimidamide, hydrochloride hydrate]
% inhibiton iNOS at 100 μM (iNOS): 19.4%

IC50 [1]: 12.3 µM | IC50 [3]: 150 µM | IC50 (RAW cell i-NOS): 80 µM
SMILES: CC(=N)NCCCC[C@H](N)C(O)CO (single isomer, unassigned) [Example 3B, N-(5S-amino-6,7-dihydroxyheptyl)ethanimidamide, dihydrochloride]

SMILES: CCOC(=O)C[C@@H](N)CCCNC(C)=N [Example 2d]
% inhibiton iNOS at 100 μM (iNOS): 5%

SMILES: CNC(=N)NCCC[C@H](N)C(=O)O [L-NMMA, L-N-monomethyl-arginine]
selectivity as NO synthase inhibitor [4]: non-selective

IC50 [1]: 61 µM | IC50 [2]: 1990 µM | IC50 [3]: 898 µM | IC50 (RAW cell i-NOS): 300 µM
SMILES: CC(=N)NCCCC[C@H](N)CC(=O)O [Example 1, 3S-amino-7-[(1-iminoethyl)amino]heptanoic Acid]

SMILES: CC(=N)NCCCC[C@H](N)C(O)COC(C)=O (stereo partly drawn) [Example 19, N-(5S-amino-6-hydroxy-7-acetoxyheptyl)ethanimidamide, hydrochloride monohydrate]
% inhibiton iNOS at 100 μM (iNOS): 54%

IC50 [1]: 187 µM | IC50 [2]: 6590 µM | IC50 [3]: 441 µM
SMILES: CC(=N)NCCCC[C@H](N)C(C)(O)CO (single isomer, unassigned) [Example 15B, N-(5S-amino-6,7-dihydroxy-6-methylheptyl)ethanimidamide, hydrochloride dihydrate]

SMILES: CC(=N)NCCCC[C@H](N)c1nnn[nH]1 [Example 41, N-[5S-amino-5-(1H-tetrazol-5-yl)pentyl]ethanimidamide, dihydrochloride]
% inhibiton iNOS at 100 μM (iNOS): 28.5%

SMILES: CC(=N)NCCCC[C@H](N)C(C)=O [Example 14, N-(5S-amino-6-oxoheptyl)ethanimidamide, dihydrochloride]
% inhibiton iNOS at 100 μM (symbol) (iNOS): * (At 100 μM dose, response was not seen.)

SMILES: CC(=N)NCCCC[C@H](N)C(O)c1ccccc1 (single isomer, unassigned) [Example 11A, α-[1-amino-5-[(1-iminoethyl)amino]pentyl]benzenemethanol hydrochloride dihydrate]
% inhibiton iNOS at 100 μM (symbol) (iNOS): * (At 100 μM dose, response was not seen.)

SMILES: CC(=N)NCCCC[C@H](N)C(O)CO (single isomer, unassigned) [Example 3A, N-(5S-amino-6,7-dihydroxyheptyl)ethanimidamide, dihydrochloride]
% inhibiton iNOS at 100 μM (iNOS): 53.4%

SMILES: CC(=N)NCCC[C@H](N)CC(=O)O [Example 2, 3S-amino-6-[(1-iminoethyl)amino]hexanoic Acid]
% inhibiton iNOS at 100 μM (symbol) (iNOS): * (At 100 μM dose, response was not seen.)

SMILES: CC(=N)Nc1ccc(C(N)CC(=O)O)cc1.Cl.Cl.O (stereo not drawn) [Example 10, β-amino-4-[(1-iminoethyl)amino]benzenepropanoic acid, dihydrochloride hydrate]
% inhibiton iNOS at 100 μM (iNOS): 3.4%

SMILES: CC(=N)NCCCC(C)N (stereo not drawn) [Example 4, Ni-(1-iminoethyl)-1,4-pentanediamine, dihydrochloride]
% inhibiton iNOS at 100 μM (iNOS): 33%

SMILES: CC(=N)NCCCC[C@H](N)C(=O)c1cccs1 [Example 12, N-[5S-amino-6-oxo-6-(2-thienyl)hexyl]ethanimidamide, hydrate]
% inhibiton iNOS at 100 μM (symbol) (iNOS): * (At 100 μM dose, response was not seen.)

IC50 [1]: 76.8 µM | IC50 [2]: 5430 µM | IC50 [3]: 670 µM | IC50 (RAW cell i-NOS): > 100 µM
SMILES: CC(=N)NCCCC[C@H](N)C(O)C(C)O (single isomer, unassigned) [Example 16B, N-(5S-amino-6,7-dihydroxyoctyl) ethanimidamide, dihydrochloride hydrate]

SMILES: CC(=N)NCCCC[C@H](N)C(C)O (single isomer, unassigned) [Example 40A, N-(5S-amino-6-hydroxyheptyl)ethanimidamide, dihydrochloride dihydrate]
% inhibiton iNOS at 100 μM (iNOS): 32.6%

SMILES: CC(=N)NCCCC[C@H](N)C(O)c1ccccc1 (single isomer, unassigned) [Example 11B, α-[1-amino-5-[(1-iminoethyl)amino]pentyl]benzenemethanol hydrochloride dihydrate]
% inhibiton iNOS at 100 μM (iNOS): 4.6%

SMILES: CC(=N)NCCCC[C@H](N)C(COC(C)=O)OC(C)=O (stereo partly drawn) [Example 18, N-(6,7-diacetyloxy-5S-aminoheptyl)ethanimidamide, hydrochloride monohydrate]
% inhibiton iNOS at 100 μM (iNOS): 7%
